From ChEMBL document CHEMBL4507329, “Data for DCP probe BTZO-1” (2021)

What was measured:
[1] = test system: Tyrosine-protein kinase ABL1 (Homo sapiens), P00519 [Q252H]; settings: Compound concentration 1000.0 nM
[2] = biological target: Tyrosine-protein kinase ABL1 (Homo sapiens) (UniProt P00519); settings: Compound concentration 1000.0 nM
[3] = biological target: NUAK family SNF1-like kinase 1 (Homo sapiens) (UniProt O60285); settings: Compound concentration 1000.0 nM
[4] = biological target: Tyrosine-protein kinase receptor UFO (Homo sapiens) (UniProt P30530); settings: Compound concentration 1000.0 nM
[5] = biological target: BMP-2-inducible protein kinase (Homo sapiens) (UniProt Q9NSY1); settings: Compound concentration 1000.0 nM
[6] = biological target: Calcium/calmodulin-dependent protein kinase type II subunit gamma (Homo sapiens) (UniProt Q13555); settings: Compound concentration 1000.0 nM
[7] = biological target: Cyclin-dependent kinase 11A (Homo sapiens) (UniProt Q9UQ88); settings: Compound concentration 1000.0 nM
[8] = biological target: Cyclin-dependent kinase 19 (Homo sapiens) (UniProt Q9BWU1); settings: Compound concentration 1000.0 nM
[9] = biological target: Cyclin-dependent kinase 4 (Homo sapiens) (UniProt P11802); settings: Compound concentration 1000.0 nM
[10] = biological target: Cyclin-dependent kinase 4 (Homo sapiens) (UniProt P11802); settings: Compound concentration 1000.0 nM; remark: listed apart in the source
[11] = biological target: Cyclin-dependent kinase-like 5 (Homo sapiens) (UniProt O76039); settings: Compound concentration 1000.0 nM
[12] = biological target: Casein kinase I isoform delta (Homo sapiens) (UniProt P48730); settings: Compound concentration 1000.0 nM
[13] = biological target: Serine/threonine-protein kinase 17B (Homo sapiens) (UniProt O94768); settings: Compound concentration 1000.0 nM
[14] = test system: Epidermal growth factor receptor (Homo sapiens), P00533 [L858R,T790M]; settings: Compound concentration 1000.0 nM
[15] = biological target: Ephrin type-A receptor 8 (Homo sapiens) (UniProt P29322); settings: Compound concentration 1000.0 nM
[16] = test system: Fibroblast growth factor receptor 3 (Homo sapiens), P22607 [G697C]; settings: Compound concentration 1000.0 nM
[17] = biological target: Fibroblast growth factor receptor 4 (Homo sapiens) (UniProt P22455); settings: Compound concentration 1000.0 nM
[18] = biological target: Tyrosine-protein kinase FRK (Homo sapiens) (UniProt P42685); settings: Compound concentration 1000.0 nM
[19] = biological target: Tyrosine-protein kinase Fyn (Homo sapiens) (UniProt P06241); settings: Compound concentration 1000.0 nM
[20] = biological target: G protein-coupled receptor kinase 4 (Homo sapiens) (UniProt P32298); settings: Compound concentration 1000.0 nM
[21] = biological target: Serine/threonine-protein kinase haspin (Homo sapiens) (UniProt Q8TF76); settings: Compound concentration 1000.0 nM
[22] = test system: Mast/stem cell growth factor receptor Kit (Homo sapiens), P10721 [D816H]; settings: Compound concentration 1000.0 nM
[23] = test system: Mast/stem cell growth factor receptor Kit (Homo sapiens), P10721 [V559D,T670I]; settings: Compound concentration 1000.0 nM
[24] = biological target: LIM domain kinase 2 (Homo sapiens) (UniProt P53671); settings: Compound concentration 1000.0 nM
[25] = biological target: Mitogen-activated protein kinase kinase kinase 1 (Homo sapiens) (UniProt Q13233); settings: Compound concentration 1000.0 nM
[26] = biological target: Myosin light chain kinase (Homo sapiens) (UniProt Q32MK0); settings: Compound concentration 1000.0 nM
[27] = biological target: Serine/threonine-protein kinase 26 (Homo sapiens) (UniProt Q9P289); settings: Compound concentration 1000.0 nM
[28] = biological target: Myosin light chain kinase 2, skeletal/cardiac muscle (Homo sapiens) (UniProt Q9H1R3); settings: Compound concentration 1000.0 nM
[29] = biological target: Cyclin-dependent kinase 16 (Homo sapiens) (UniProt Q00536); settings: Compound concentration 1000.0 nM
[30] = biological target: 1-phosphatidylinositol 3-phosphate 5-kinase (Homo sapiens) (UniProt Q9Y2I7); settings: Compound concentration 1000.0 nM
[31] = biological target: Protein kinase C epsilon type (Homo sapiens) (UniProt Q02156); settings: Compound concentration 1000.0 nM
[32] = biological target: Serine/threonine-protein kinase D2 (Homo sapiens) (UniProt Q9BZL6); settings: Compound concentration 1000.0 nM
[33] = biological target: Rho-associated protein kinase 2 (Homo sapiens) (UniProt O75116); settings: Compound concentration 1000.0 nM
[34] = biological target: Ribosomal protein S6 kinase alpha-5 (Homo sapiens) (UniProt O75582); settings: Compound concentration 1000.0 nM
[35] = biological target: Serine/threonine-protein kinase SIK2 (Homo sapiens) (UniProt Q9H0K1); settings: Compound concentration 1000.0 nM
[36] = biological target: Serine/threonine-protein kinase TBK1 (Homo sapiens) (UniProt Q9UHD2); settings: Compound concentration 1000.0 nM
[37] = biological target: Serine/threonine-protein kinase tousled-like 1 (Homo sapiens) (UniProt Q9UKI8); settings: Compound concentration 1000.0 nM
[38] = biological target: Serine/threonine-protein kinase tousled-like 2 (Homo sapiens) (UniProt Q86UE8); settings: Compound concentration 1000.0 nM
[39] = biological target: Testis-specific serine/threonine-protein kinase 3 (Homo sapiens) (UniProt Q96PN8); settings: Compound concentration 1000.0 nM
[40] = biological target: Dual specificity protein kinase TTK (Homo sapiens) (UniProt P33981); settings: Compound concentration 1000.0 nM
[41] = biological target: Serine/threonine-protein kinase ULK2 (Homo sapiens) (UniProt Q8IYT8); settings: Compound concentration 1000.0 nM
[42] = biological target: Phosphatidylinositol 3-kinase catalytic subunit type 3 (Homo sapiens) (UniProt Q8NEB9); settings: Compound concentration 1000.0 nM
[43] = biological target: Serine/threonine-protein kinase 25 (Homo sapiens) (UniProt O00506); settings: Compound concentration 1000.0 nM
[44] = biological target: 5-hydroxytryptamine receptor 1A (Homo sapiens) (UniProt P08908); settings: Compound concentration 10.0 uM
[45] = biological target: D(4) dopamine receptor (Homo sapiens) (UniProt P21917); settings: Compound concentration 10.0 uM
[46] = biological target: Muscarinic acetylcholine receptor M5 (Homo sapiens) (UniProt P08912); settings: Compound concentration 10.0 uM

Chain of Cyclin-dependent kinase 4 (Homo sapiens) (P11802 whole entry): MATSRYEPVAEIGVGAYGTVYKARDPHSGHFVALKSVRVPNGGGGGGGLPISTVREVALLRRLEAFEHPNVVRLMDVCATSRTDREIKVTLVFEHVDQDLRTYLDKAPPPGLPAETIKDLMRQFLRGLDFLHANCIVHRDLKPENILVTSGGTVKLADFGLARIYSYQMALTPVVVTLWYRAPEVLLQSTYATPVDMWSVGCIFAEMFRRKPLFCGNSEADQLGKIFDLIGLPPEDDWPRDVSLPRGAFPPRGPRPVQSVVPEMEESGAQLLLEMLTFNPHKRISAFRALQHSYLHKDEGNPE
Chain of Mast/stem cell growth factor receptor Kit (Homo sapiens), P10721 [D816H] (P10721 whole entry D816H): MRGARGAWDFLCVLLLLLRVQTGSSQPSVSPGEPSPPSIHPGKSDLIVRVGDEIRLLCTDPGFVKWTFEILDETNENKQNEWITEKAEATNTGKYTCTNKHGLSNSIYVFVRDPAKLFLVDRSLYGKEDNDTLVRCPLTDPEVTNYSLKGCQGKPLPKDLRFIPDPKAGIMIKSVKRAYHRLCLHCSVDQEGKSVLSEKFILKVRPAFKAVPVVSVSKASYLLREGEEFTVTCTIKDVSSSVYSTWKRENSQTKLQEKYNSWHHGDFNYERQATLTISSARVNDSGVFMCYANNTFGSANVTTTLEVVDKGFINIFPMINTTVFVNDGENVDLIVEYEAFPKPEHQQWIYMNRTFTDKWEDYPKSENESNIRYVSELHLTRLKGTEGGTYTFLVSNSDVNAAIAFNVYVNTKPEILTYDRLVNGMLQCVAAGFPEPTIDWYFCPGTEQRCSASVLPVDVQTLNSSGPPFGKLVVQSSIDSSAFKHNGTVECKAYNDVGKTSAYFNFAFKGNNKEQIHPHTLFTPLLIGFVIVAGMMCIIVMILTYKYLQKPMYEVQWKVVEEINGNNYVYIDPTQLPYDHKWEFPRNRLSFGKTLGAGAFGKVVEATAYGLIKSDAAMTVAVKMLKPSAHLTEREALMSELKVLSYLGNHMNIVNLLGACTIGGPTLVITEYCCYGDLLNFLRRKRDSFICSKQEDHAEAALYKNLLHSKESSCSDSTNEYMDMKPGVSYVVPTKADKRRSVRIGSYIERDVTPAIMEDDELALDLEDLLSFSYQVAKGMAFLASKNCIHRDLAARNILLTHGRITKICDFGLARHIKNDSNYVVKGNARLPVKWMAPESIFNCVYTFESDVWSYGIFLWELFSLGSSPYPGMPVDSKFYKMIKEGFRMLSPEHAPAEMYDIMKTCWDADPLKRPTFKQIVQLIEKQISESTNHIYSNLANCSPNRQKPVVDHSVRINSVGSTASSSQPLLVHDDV
Chain of 1-phosphatidylinositol 3-phosphate 5-kinase (Homo sapiens) (Q9Y2I7 whole entry): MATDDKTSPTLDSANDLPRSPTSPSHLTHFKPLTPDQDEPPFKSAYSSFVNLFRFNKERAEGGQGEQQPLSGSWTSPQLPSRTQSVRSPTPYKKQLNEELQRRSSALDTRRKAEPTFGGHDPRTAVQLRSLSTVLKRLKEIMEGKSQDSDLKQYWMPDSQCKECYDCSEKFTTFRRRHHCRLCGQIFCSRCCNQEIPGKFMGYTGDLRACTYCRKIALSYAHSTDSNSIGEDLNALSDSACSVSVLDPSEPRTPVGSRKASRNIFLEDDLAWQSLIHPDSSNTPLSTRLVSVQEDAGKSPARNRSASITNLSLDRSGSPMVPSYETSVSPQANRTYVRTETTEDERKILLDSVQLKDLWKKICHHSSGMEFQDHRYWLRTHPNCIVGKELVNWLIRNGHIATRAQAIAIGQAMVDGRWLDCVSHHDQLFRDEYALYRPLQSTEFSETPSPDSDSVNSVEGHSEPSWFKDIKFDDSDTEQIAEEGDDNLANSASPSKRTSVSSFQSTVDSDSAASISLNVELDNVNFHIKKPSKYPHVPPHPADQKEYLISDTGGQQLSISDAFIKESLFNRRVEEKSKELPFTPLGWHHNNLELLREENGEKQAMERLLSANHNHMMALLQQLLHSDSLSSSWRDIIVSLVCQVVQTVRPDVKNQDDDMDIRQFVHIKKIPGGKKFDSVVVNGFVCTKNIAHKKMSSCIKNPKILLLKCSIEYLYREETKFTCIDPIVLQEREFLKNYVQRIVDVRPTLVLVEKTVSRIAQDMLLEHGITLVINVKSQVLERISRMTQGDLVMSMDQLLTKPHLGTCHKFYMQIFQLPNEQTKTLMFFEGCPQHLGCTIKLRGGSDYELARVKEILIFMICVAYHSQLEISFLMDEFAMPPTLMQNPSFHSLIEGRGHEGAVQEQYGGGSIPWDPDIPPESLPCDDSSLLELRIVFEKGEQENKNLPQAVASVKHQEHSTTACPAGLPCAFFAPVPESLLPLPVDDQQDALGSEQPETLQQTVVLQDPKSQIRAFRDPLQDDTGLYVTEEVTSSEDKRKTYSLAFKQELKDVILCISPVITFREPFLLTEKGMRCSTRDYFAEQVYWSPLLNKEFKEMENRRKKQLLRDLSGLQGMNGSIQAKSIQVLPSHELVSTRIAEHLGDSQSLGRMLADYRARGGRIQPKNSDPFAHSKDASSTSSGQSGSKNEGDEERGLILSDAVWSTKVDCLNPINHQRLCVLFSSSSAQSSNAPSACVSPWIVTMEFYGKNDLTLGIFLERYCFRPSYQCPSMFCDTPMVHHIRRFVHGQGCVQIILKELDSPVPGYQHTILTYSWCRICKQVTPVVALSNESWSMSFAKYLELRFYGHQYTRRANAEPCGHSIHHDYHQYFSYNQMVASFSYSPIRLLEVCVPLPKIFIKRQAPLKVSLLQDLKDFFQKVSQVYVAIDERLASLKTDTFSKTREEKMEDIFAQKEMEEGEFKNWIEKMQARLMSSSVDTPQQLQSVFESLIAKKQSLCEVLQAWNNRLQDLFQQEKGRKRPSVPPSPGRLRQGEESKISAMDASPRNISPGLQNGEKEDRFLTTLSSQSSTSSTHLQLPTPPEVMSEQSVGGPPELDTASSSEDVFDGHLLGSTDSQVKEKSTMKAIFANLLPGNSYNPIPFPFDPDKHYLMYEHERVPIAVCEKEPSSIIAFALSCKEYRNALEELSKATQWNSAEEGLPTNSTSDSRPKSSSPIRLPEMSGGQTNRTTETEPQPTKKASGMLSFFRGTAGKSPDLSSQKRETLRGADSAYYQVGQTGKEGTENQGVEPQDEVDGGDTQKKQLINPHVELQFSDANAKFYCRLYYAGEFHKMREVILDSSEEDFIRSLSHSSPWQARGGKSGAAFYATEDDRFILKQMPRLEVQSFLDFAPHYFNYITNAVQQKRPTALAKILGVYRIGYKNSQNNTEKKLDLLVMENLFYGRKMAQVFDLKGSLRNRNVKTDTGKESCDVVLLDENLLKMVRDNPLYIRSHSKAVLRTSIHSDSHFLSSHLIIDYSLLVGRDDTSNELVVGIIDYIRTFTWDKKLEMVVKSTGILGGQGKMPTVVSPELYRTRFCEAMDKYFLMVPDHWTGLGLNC
Chain of Serine/threonine-protein kinase SIK2 (Homo sapiens) (Q9H0K1 whole entry, looked up): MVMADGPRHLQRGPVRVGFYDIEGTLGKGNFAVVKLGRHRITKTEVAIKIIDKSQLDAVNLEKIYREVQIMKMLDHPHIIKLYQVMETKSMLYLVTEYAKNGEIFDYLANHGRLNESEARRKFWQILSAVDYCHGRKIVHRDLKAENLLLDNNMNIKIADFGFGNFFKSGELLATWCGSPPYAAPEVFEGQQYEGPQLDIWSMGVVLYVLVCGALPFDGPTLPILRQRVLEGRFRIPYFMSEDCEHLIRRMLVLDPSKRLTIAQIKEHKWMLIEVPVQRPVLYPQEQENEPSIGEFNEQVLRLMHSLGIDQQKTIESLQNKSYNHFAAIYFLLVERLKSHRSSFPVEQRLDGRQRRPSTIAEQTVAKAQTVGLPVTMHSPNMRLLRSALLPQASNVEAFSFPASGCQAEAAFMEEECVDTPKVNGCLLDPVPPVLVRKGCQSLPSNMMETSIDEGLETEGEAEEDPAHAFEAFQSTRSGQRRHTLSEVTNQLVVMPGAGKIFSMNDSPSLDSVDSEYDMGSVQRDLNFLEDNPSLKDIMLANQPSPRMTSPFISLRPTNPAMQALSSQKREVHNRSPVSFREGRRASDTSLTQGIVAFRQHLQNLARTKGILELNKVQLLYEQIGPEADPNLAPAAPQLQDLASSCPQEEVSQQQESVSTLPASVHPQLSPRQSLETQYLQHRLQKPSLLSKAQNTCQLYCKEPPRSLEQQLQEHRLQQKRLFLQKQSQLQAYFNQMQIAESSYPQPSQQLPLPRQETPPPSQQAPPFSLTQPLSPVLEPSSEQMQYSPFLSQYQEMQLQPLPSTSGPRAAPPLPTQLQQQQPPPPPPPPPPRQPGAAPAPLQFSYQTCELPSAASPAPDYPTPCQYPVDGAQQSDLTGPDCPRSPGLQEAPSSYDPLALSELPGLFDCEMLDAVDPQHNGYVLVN
Chain of Myosin light chain kinase (Homo sapiens) (Q32MK0 whole entry): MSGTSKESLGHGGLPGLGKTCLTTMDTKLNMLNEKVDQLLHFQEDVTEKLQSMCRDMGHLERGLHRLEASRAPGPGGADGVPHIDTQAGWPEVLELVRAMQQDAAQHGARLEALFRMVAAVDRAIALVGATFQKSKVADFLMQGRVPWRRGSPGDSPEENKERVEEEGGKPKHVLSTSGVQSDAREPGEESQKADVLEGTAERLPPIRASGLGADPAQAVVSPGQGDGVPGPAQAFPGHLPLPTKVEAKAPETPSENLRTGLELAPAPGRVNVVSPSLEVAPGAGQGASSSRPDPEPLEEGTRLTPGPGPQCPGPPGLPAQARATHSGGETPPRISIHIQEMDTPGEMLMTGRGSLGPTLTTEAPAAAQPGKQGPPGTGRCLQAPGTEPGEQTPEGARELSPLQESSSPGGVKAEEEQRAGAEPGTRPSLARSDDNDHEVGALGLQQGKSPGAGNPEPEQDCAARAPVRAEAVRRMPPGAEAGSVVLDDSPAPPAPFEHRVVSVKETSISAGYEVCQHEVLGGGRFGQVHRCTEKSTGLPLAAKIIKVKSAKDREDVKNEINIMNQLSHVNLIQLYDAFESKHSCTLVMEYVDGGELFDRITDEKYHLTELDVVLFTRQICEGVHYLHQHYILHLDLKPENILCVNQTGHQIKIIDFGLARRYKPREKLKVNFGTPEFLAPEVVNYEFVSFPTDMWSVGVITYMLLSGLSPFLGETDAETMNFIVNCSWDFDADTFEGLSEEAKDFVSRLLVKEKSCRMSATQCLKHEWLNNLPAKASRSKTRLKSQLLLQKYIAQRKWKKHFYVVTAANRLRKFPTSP

O=c1nc(-c2ccccn2)sc2ccccc12 [BTZO-1]
inactive: residual activity [1] 96% | residual activity [2] 93% | residual activity [3] 100% | residual activity [4] 100% | residual activity [5] 86% | residual activity [6] 96% | residual activity [7] 94% | residual activity [8] 86% | residual activity [9] 100% | residual activity [10] 90% | residual activity [11] 100% | residual activity [12] 81% | residual activity [13] 80% | residual activity [14] 100% | residual activity [15] 78% | residual activity [16] 100% | residual activity [17] 73% | residual activity [18] 100% | residual activity [19] 100% | residual activity [20] 100% | residual activity [21] 100% | residual activity [22] 92% | residual activity [23] 83% | residual activity [24] 100% | residual activity [25] 65% | residual activity [26] 100% | residual activity [27] 100% | residual activity [28] 100% | residual activity [29] 100% | residual activity [30] 100% | residual activity [31] 100% | residual activity [32] 97% | residual activity [33] 94% | residual activity [34] 94% | residual activity [35] 86% | residual activity [36] 91% | residual activity [37] 93% | residual activity [38] 96% | residual activity [39] 86% | residual activity [40] 100% | residual activity [41] 100% | residual activity [42] 82% | residual activity [43] 100% | inhibition [44] 9.69% | inhibition [45] 10.1% | inhibition [46] -7.5%

O=C1NC(c2ccccn2)Sc2ccccc21 (configuration not stated) [BTZO-4]
inactive: residual activity [1] 75% | residual activity [2] 69% | residual activity [3] 95% | residual activity [4] 92% | residual activity [5] 88% | residual activity [6] 98% | residual activity [7] 100% | residual activity [8] 100% | residual activity [9] 91% | residual activity [10] 81% | residual activity [11] 100% | residual activity [12] 74% | residual activity [13] 73% | residual activity [14] 100% | residual activity [15] 63% | residual activity [16] 100% | residual activity [17] 89% | residual activity [18] 100% | residual activity [19] 100% | residual activity [20] 100% | residual activity [21] 100% | residual activity [22] 79% | residual activity [23] 87% | residual activity [24] 92% | residual activity [25] 55% | residual activity [26] 100% | residual activity [27] 80% | residual activity [28] 100% | residual activity [29] 100% | residual activity [30] 100% | residual activity [31] 96% | residual activity [32] 96% | residual activity [33] 67% | residual activity [34] 95% | residual activity [35] 96% | residual activity [36] 87% | residual activity [37] 94% | residual activity [38] 96% | residual activity [39] 88% | residual activity [40] 91% | residual activity [41] 76% | residual activity [42] 99% | residual activity [43] 78% | inhibition [44] 24.7% | inhibition [45] 7.31% | inhibition [46] 0.557%
